Measurements reported in patent US11584763B2, “Chromenopyridine derivatives as phosphatidylinositol phosphate kinase inhibitors” (HIBERCELL, INC., priority 2017, dated 2023).

Tests used:
PIP4K2B = target: T1, PIP4K2B (Homo sapiens, UniProt P78356); test: Trans-FI P kinase assay PIP4K2B (PIP4KtypeIIB inhibition assay); assay type: biochemical; conditions: compounds listed under IC50 bin headings; 100 uM GTP; read-out: Trans-FI P kinase assays: PIP4K2B IC50
T1 construct: made in house; host or cells: E. coli
T1 sequence (P78356 1-416): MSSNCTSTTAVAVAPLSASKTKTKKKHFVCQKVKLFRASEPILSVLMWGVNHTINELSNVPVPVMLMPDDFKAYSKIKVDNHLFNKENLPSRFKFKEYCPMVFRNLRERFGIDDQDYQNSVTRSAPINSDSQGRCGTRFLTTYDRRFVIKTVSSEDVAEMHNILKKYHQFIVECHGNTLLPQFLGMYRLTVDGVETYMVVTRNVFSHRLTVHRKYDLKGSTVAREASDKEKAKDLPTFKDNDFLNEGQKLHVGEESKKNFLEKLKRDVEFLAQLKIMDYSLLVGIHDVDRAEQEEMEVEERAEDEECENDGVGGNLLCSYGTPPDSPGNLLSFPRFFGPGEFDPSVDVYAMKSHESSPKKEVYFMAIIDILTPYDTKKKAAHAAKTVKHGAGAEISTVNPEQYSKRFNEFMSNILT
In short: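 Transcreener FI fluorescence read-out of GDP formed by E. coli-expressed GST-PIP4K2B (5 nM) using 100 uM GTP and 80 uM PI5P with DOPE carrier lipid, pH 7.3, 2 h reaction. Compounds (up to 4.8 uM) were preincubated with enzyme 1 h at 27 C; IC50 fitted from residual activity relative to no-inhibitor control.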

PIP4K 2A = target: T2, PIP4K 2A (Homo sapiens, UniProt P48426); test: ADP-glo kinase assay PIP4K 2A; assay type: biochemical; set-up: 4 nM PIP4K2A (full length protein, SignalChem); purchased SignalChem; conditions: compounds listed under IC50 bin headings
T2 sequence (P48426 1-406): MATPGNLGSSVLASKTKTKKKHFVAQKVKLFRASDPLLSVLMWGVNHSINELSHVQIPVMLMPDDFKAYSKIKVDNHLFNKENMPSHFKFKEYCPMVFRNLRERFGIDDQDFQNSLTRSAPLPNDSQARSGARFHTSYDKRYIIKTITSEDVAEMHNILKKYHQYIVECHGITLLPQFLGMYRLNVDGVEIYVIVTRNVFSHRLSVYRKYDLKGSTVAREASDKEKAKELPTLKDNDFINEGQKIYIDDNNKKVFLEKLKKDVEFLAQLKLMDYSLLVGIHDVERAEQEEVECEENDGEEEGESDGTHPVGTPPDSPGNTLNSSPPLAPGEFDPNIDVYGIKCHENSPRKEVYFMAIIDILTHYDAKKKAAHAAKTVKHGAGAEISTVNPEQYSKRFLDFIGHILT
In short: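 Inhibition was calculated versus DMSO controls from ADP-Glo luminescence and fitted to IC50 over a 10-point, threefold series. Compound was first pre-incubated 15 min at room temperature with PIP4K2A (full-length; 4 nM in the enzyme/substrate mix) and PI(5)P diC8 (100 μM in that mix). The reaction then ran for 1 h after adding 60 μM ATP solution, in MOPS pH 7.2/MgCl2/Tween buffer.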

SMILES	IC50 (PIP4K2B) [nM]	IC50 (PIP4K 2A) [nM]
CC1Oc2cc(N3CCCC3=O)ccc2-c2cnc(Nc3cncc(NC(=O)c4ccnnc4)c3)cc21 (stereo not drawn) [Example 125, N-(5-((5-methyl-8-(2-oxopyrrolidin-1-yl)-5H-chromeno[4,3-c]pyridin-3-yl)amino)pyridin-3-yl)pyridazine-4-carboxamide]	10 to 100	1 to 10
COc1cccc(C(=O)Nc2cncc(Nc3cc4c(cn3)-c3ccc(N5CCCC5=O)cc3OC4C)c2)c1 (stereo not drawn) [Example 121, 3-methoxy-N-(5-((5-methyl-8-(2-oxopyrrolidin-1-yl)-5H-chromeno[4,3-c]pyridin-3-yl)amino)pyridin-3-yl)benzamide]	1 to 10	≤ 1
COc1ncc(Nc2cc3c(cn2)-c2ccc(N4CCCC4=O)cc2OC3(C)C)cc1NC(C)=O [Example 191, N-(5-((5,5-dimethyl-8-(2-oxopyrrolidin-1-yl)-5H-chromeno[4,3-c]pyridin-3-yl)amino)-2-methoxypyridin-3-yl)acetamide]	100 to 1000	100 to 1000
CC1Oc2cc(N3CCCC3=O)ccc2-c2cnc(Nc3cncc(NC(=O)c4ccc5c(c4)OCO5)c3)cc21 (stereo not drawn) [Example 136, N-(5-((5-methyl-8-(2-oxopyrrolidin-1-yl)-5H-chromeno[4,3-c]pyridin-3-yl)amino)pyridin-3-yl)benzo[d][1,3]dioxole-5-carboxamide]	10 to 100	1 to 10
O=C1CCCN1c1ccc2c(c1)OCc1cc(Nc3cncc(N4CCNC4=O)c3)ncc1-2 [Example 160, 1-(5-((8-(2-oxopyrrolidin-1-yl)-5H-chromeno[4,3-c]pyridin-3-yl)amino)pyridin-3-yl)imidazolidin-2-one]	10 to 100	1 to 10
CC1Oc2cc(N3CCCC3=O)ccc2-c2cnc(Nc3cncc(NC(=O)c4cccc5c4OCO5)c3)cc21 (stereo not drawn) [Example 137, N-(5-((5-methyl-8-(2-oxopyrrolidin-1-yl)-5H-chromeno[4,3-c]pyridin-3-yl)amino)pyridin-3-yl)benzo[d][1,3]dioxole-4-carboxamide]	10 to 100	1 to 10
CN1CCN(c2cncc(Nc3cc4c(cn3)-c3ccc(N5CCCC5=O)cc3OC4(C)C)c2)S1(=O)=O [Example 186, 1-(5,5-dimethyl-3-((5-(5-methyl-1,1-dioxido-1,2,5-thiadiazolidin-2-yl)pyridin-3-yl)amino)-5H-chromeno[4,3-c]pyridin-8-yl)pyrrolidin-2-one]	10 to 100	10 to 100
CC1Oc2cc(N3CCCC3=O)ccc2-c2cnc(Nc3cncc(NC(=O)c4ccn5ccnc5c4)c3)cc21 (stereo not drawn) [Example 147, N-(5-((5-methyl-8-(2-oxopyrrolidin-1-yl)-5H-chromeno[4,3-c]pyridin-3-yl)amino)pyridin-3-yl)imidazo[1,2-a]pyridine-7-carboxamide]	10 to 100	1 to 10
O=C1CCCN1c1cc2c(cc1F)-c1cnc(Nc3cnc4c(c3)OCCO4)cc1CO2 [Example 165, 1-(3-((2,3-dihydro-[1,4]dioxino[2,3-b]pyridin-7-yl)amino)-9-fluoro-5H-chromeno[4,3-c]pyridin-8-yl)pyrrolidin-2-one]	10 to 100	10 to 100
CC1Oc2cc(N3CCCC3=O)ccc2-c2cnc(Nc3cncc(NC(=O)c4cnn5ccccc45)c3)cc21 (stereo not drawn) [Example 144, N-(5-((5-methyl-8-(2-oxopyrrolidin-1-yl)-5H-chromeno[4,3-c]pyridin-3-yl)amino)pyridin-3-yl)pyrazolo[1,5-a]pyridine-3-carboxamide]	1 to 10	≤ 1
CC1Oc2cc(N3CCCC3=O)ccc2-c2cnc(Nc3cnc4c(c3)N3C(=O)C5(CC5)C[C@H]3CO4)cc21 (stereo partly drawn) [Example 157, (6a′S)-2′-((5-methyl-8-(2-oxopyrrolidin-1-yl)-5H-chromeno[4,3-c]pyridin-3-yl)amino)-6a′,7′-dihydro-6′H,9′H-spiro[cyclopropane-1,8′-pyrido[2,3-b]pyrrolo[1,2-d][1,4]oxazin]-9′-one]	1 to 10	≤ 1

Now from value to compound:

IC50 (PIP4K2B) [nM]	IC50 (PIP4K 2A) [nM]	SMILES
1 to 10	1 to 10	O=C1CCCN1c1ccc2c(c1)OCc1cc(Nc3cnc4c(c3)N3C(=O)CC[C@@H]3CO4)ncc1-2 [Example 182, (R)-2-((8-(2-oxopyrrolidin-1-yl)-5H-chromeno[4,3-c]pyridin-3-yl)amino)-6,6a,7,8-tetrahydro-9H-pyrido[2,3-b]pyrrolo[1,2-d][1,4]oxazin-9-one]
10 to 100	1 to 10	CC1Oc2cc(N3CCCC3=O)ccc2-c2cnc(Nc3cncc(NC(=O)CCc4cccc(NC(=O)/C=C/CN(C)C)c4)c3)cc21 (stereo not drawn) [Example 176, (E)-4-(dimethylamino)-N-(3-(3-((5-((5-methyl-8-(2-oxopyrrolidin-1-yl)-5H-chromeno[4,3-c]pyridin-3-yl)amino)pyridin-3-yl)amino)-3-oxopropyl)phenyl)but-2-enamide]
10 to 100	1 to 10	CC1Oc2cc(N3CCCC3=O)ccc2-c2cnc(Nc3cncc(NC(=O)c4ccc5cc[nH]c5c4)c3)cc21 (stereo not drawn) [Example 108, N-(5-((5-methyl-8-(2-oxopyrrolidin-1-yl)-5H-chromeno[4,3-c]pyridin-3-yl)amino)pyridin-3-yl)-1H-indole-6-carboxamide]
1 to 10	≤ 1	CC1Oc2cc(N3CCCC3=O)c(F)cc2-c2cnc(Nc3cnc4c(c3)N3C(=O)OC[C@H]3CO4)cc21 (stereo partly drawn) [Example 159, (3aR)-8-((9-fluoro-5-methyl-8-(2-oxopyrrolidin-1-yl)-5H-chromeno[4,3-c]pyridin-3-yl)amino)-3a,4-dihydro-1H,3H-oxazolo[3,4-d]pyrido[2,3-b][1,4]oxazin-1-one]
10 to 100	1 to 10	CC1Oc2cc(N3CCCC3=O)ccc2-c2cnc(Nc3cncc(NC(=O)[C@H]4C[C@@H]4c4ccccc4)c3)cc21 (stereo partly drawn) [Example 111, (1S,2S)—N-(5-((5-methyl-8-(2-oxopyrrolidin-1-yl)-5H-chromeno[4,3-c]pyridin-3-yl)amino)pyridin-3-yl)-2-phenylcyclopropane-1-carboxamide]
1 to 10	≤ 1	CC1C[C@H]2COc3ncc(Nc4cc5c(cn4)-c4cc(F)c(N6CCCC6=O)cc4OC5C)cc3N2C1=O (stereo partly drawn) [Example 152, (6aS)-2-((9-fluoro-5-methyl-8-(2-oxopyrrolidin-1-yl)-5H-chromeno[4,3-c]pyridin-3-yl)amino)-8-methyl-6,6a,7,8-tetrahydro-9H-pyrido[2,3-b]pyrrolo[1,2-d][1,4]oxazin-9-one]
1 to 10	1 to 10	CN(C)C/C=C/C(=O)Nc1ccc(C(=O)Nc2cncc(Nc3cc4c(cn3)-c3ccc(N5CCCC5=O)cc3OC4(C)C)c2)cc1 [Example 198, (E)-N-(5-((5,5-dimethyl-8-(2-oxopyrrolidin-1-yl)-5H-chromeno[4,3-c]pyridin-3-yl)amino)pyridin-3-yl)-4-(4-(dimethylamino)but-2-enamido)benzamide]
